The target of test [1] is T1, IRAK4 (Homo sapiens, UniProt Q9NWZ3).
T1 construct: expression of target proteins in cells; endogenous in cells
T1 sequence (Q9NWZ3 1-460): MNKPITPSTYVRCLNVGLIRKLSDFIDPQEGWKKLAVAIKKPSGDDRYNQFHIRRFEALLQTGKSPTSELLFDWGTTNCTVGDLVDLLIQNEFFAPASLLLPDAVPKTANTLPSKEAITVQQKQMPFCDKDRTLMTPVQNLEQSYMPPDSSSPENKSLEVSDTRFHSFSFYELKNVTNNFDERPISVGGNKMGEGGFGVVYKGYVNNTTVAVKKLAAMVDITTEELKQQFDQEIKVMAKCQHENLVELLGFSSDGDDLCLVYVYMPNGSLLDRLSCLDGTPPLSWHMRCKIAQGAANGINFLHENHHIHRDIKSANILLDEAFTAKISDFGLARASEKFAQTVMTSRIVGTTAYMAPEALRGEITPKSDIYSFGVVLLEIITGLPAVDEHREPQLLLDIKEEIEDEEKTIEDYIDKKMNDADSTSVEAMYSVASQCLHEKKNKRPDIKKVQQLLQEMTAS
The test is described as follows: Western blot degradation of IRAK4. Type of test: cell-based. Conditions: hPBMC Cell; 24 hours. In short, it runs like this:
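Cells treated with compound, lysed, and target protein detected by Western blot (SDS-PAGE, nitrocellulose transfer). DC50 taken as the concentration giving band grayscale half that of DMSO control, estimated by concentration-response fitting; remaining protein (%) from target band normalised to internal control band; degradation (%) = 1 − remaining.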
On the technique in general: Immunoblotting shows a protein as a band on a membrane.

In test [2] the target is T2, human Cereblon WT GST-tagged protein (CRBN) (Homo sapiens, UniProt Q96SW2).
T2 construct: purchased CISBIO 64BDCRBNPEH
Kind of test: CRBN binding by HTRF (Cereblon binding kit). The note with it: for inhibition at 0.5 µM: read-out: Inhibition Rate at 0.5 μM (%); for inhibition at 2 µM: read-out: Inhibition Rate at 2 μM (%). In outline:
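GST-tagged human Cereblon WT was incubated 3 h at room temperature with compound, thalidomide-Re tracer and Eu anti-GST antibody. Final compound concentrations were 10 to 0.00064 µM (7 points) or 2 and 0.5 µM. Inhibition rate was calculated from HTRF 665/620 nm ratios versus solvent and blank controls.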
A general note: Time-resolved FRET reads energy transfer from a long-lived donor to a nearby acceptor.

Data on nine compounds can be found in patent US20260364184A1, “COMPOUND BASED ON OXOISOINDOLINYL-SUBSTITUTED TETRAHYDROPYRIMIDINE-DIONE AND USE THEREOF” (GLUETACS THERAPEUTICS (SHANGHAI) CO., LTD., priority 2023, published 2026).

T2 sequence (Q96SW2 whole entry): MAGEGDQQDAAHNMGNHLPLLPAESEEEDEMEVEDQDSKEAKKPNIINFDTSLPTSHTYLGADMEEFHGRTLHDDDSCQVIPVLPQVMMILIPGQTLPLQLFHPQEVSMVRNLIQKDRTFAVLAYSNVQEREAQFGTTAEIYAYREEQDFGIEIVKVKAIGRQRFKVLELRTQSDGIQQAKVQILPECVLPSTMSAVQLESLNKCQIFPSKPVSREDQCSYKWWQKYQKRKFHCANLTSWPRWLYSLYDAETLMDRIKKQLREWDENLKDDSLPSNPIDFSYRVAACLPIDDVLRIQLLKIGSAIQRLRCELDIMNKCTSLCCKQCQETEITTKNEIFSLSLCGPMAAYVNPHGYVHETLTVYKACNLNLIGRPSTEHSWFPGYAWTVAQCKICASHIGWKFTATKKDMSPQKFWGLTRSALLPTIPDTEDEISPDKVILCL

Take `O=C1CCN(N2Cc3cc(CN4CCC(n5cc(NC(=O)c6coc(-c7ccnc(NCC8CC8)c7)n6)c(C(F)F)n5)CC4)ccc3C2=O)C(=O)N1` [GT-04951, 2-(2-((cyclopropylmethyl)amino)pyridin-4-yl)-N-(3-(difluoromethyl)-1-(1-((2-(2,4-dioxotetrahydropyrimidin-1(2H)-yl)-1-oxoisoindolin-5-yl)methyl)piperidin-4-yl)-1H-pyrazol-4-yl) oxazole-4-carboxamide]: the “Degradation of substrate protein IRAK4 (substrate protein remaining %)” value (“Degradation … (substrate protein remaining %)” below) in test [1] is “A (0%≤substrate protein remaining %≤80%)”. Further, in test [2], the “Inhibition Rate at 0.5 μM (%)” value is “a3 (30% < a3 ≤ 40%)” and the “Inhibition Rate at 2 μM (%)” value is “a6 (60% < a6 ≤ 80%)”.
Take `O=C1CCN(N2Cc3cc(CN4CCC(n5cc(NC(=O)c6cnn7ccc(N8C[C@H]9C[C@@H]8CO9)nc67)c(C(F)F)n5)CC4)ccc3C2=O)C(=O)N1` [GT-05028, 5-((1R,4R)-2-oxa-5-azabicyclo[2.2.1]heptan-5-yl)-N-(3-(difluoromethyl)-1-(1-((2-(2,4-dioxotetrahydropyrimidin-1(2H)-yl)-1-oxoisoindolin-5-yl)methyl)piperidin-4-yl)-1H-pyrazol-4-yl)pyrazolo[1,5-a]pyrimidine-3-carboxamide]: in test [1], the “Degradation … (substrate protein remaining %)” value is recorded as “A (0%≤substrate protein remaining %≤80%)”. For the same compound, in test [2], the “Inhibition Rate at 0.5 μM (%)” value is “a2 (20% < a2 ≤ 30%)” and the “Inhibition Rate at 2 μM (%)” value is “a6 (60% < a6 ≤ 80%)”.
Consider `N#Cc1ccc(O[C@H]2CC[C@H](NC(=O)c3ccc(N4CCC(CN5C[C@@H]6C[C@H]5CN6c5ccc6c(c5)C(=O)N(N5CCC(=O)NC5=O)C6=O)CC4)nn3)CC2)cc1Cl` [GT-05226, N-((1r,4r)-4-(3-chloro-4-cyanophenoxy)cyclohexyl)-6-(4-(((1S,4S)-5-(2-(2,4-dioxotetrahydropyrimidin-1(2H)-yl)-1,3-dioxoisoindolin-5-yl)-2,5-diazabicyclo[2.2.1]heptan-2-yl)methyl)piperidin-1-yl)pyridazine-3-carboxamide], for which, in test [2], the inhibition at 0.5 µM was 30 to 40% and the inhibition at 2 µM lay in the range of 30 to 40%.
As to `O=C1CCN(N2C(=O)c3ccc(N4C5CC4CN(C[C@H]4CC[C@H](n6cc(NC(=O)c7cnn8ccc(N9C[C@H]%10C[C@@H]9CO%10)nc78)c(C(F)F)n6)CC4)C5)cc3C2=O)C(=O)N1` [GT-05242, 5-((1R,4R)-2-oxa-5-azabicyclo[2.2.1]heptan-5-yl)-N-(3-(difluoromethyl)-1-((1r,4R)-4-((6-(2-(2,4-dioxotetrahydropyrimidin-1(2H)-yl)-1,3-dioxoisoindolin-5-yl)-3,6-diazabicyclo[3.1.1]heptan-3-yl)methyl)cyclohexyl)-1H-pyrazol-4-yl)pyrazolo[1,5-a]pyrimidine-3-carboxamide], the “Degradation … (substrate protein remaining %)” value in test [1] is reported as “A (0%≤substrate protein remaining %≤80%)”. In test [2], the inhibition at 0.5 µM lay in the range of 30 to 40% and the inhibition at 2 µM was 53 to 60%.
For `O=C1CCN(N2C(=O)c3cccc(N4CCC(CN5CCC(n6cc(NC(=O)c7cnn8ccc(N9C[C@H]%10C[C@@H]9CO%10)nc78)c(C(F)F)n6)CC5)CC4)c3C2=O)C(=O)N1` [GT-05285, 5-((1R,4R)-2-oxa-5-azabicyclo[2.2.1]heptan-5-yl)-N-(3-(difluoromethyl)-1-(1-((1-(2-(2,4-dioxotetrahydropyrimidin-1(2H)-yl)-1,3-dioxoisoindolin-4-yl)piperidin-4-yl)methyl)piperidin-4-yl)-1H-pyrazol-4-yl)pyrazolo[1,5-a]pyrimidine-3-carboxamide], the “Degradation … (substrate protein remaining %)” value in test [1] was “A (0%≤substrate protein remaining %≤80%)”. Besides, in test [2], the inhibition at 0.5 µM lay within 20 to 30% and the inhibition at 2 µM lay in the range of 60 to 80%.
With `CC(C)(O)c1cc2nc(C3CCN(Cc4ccc5c(c4)CN(N4CCC(=O)NC4=O)C5=O)CC3)oc2cc1NC(=O)c1cccc(C(F)(F)F)n1` [GT-05748, N-(2-(1-((2-(2,4-dioxotetrahydropyrimidin-1(2H)-yl)-1-oxoisoindolin-5-yl)methyl)piperidin-4-yl)-5-(2-hydroxypropan-2-yl)benzo[d]oxazol-6-yl)-6-(trifluoromethyl) picolinamide], in test [1], the “Degradation … (substrate protein remaining %)” value is reported as “A (0%≤substrate protein remaining %≤80%)”. Also, in test [2], the inhibition at 0.5 µM is 10 to 20% and the inhibition at 2 µM fell in the range of 60 to 80%.
Turning to `O=C1CCN(N2Cc3cc(CN4CCC(n5cc(NC(=O)c6cnn7ccc(N8CCOCC8)nc67)c(C(F)F)n5)CC4)ccc3C2=O)C(=O)N1` [GT-05749], the “Degradation … (substrate protein remaining %)” value in test [1] was “A (0%≤substrate protein remaining %≤80%)”. For the same compound, in test [2], the inhibition at 0.5 µM was 20 to 30% and the inhibition at 2 µM was 53 to 60%.
As to `N#Cc1ccc(O[C@H]2CC[C@H](NC(=O)c3ccc(N4CCC(CN5CC6CCC5CN6c5ccc6c(c5)C(=O)N(N5CCC(=O)NC5=O)C6=O)CC4)nn3)CC2)cc1Cl` (stereo partly drawn) [GT-05832, N-((1r,4r)-4-(3-chloro-4-cyanophenoxy)cyclohexyl)-6-(4-((5-(2-(2,4-dioxotetrahydropyrimidin-1(2H)-yl)-1,3-dioxoisoindolin-5-yl)-2,5-diazabicyclo[2.2.2]octan-2-yl)methyl)piperidin-1-yl)pyridazine-3-carboxamide], in test [2], the inhibition at 0.5 µM fell in the range of 30 to 40% and the inhibition at 2 µM was in the range of 40 to 53%.
Turning to `CC1(C)[C@H](NC(=O)c2ccc(N3CCC(CN4CC5CCC4CN5c4ccc5c(c4)C(=O)N(N4CCC(=O)NC4=O)C5=O)CC3)nc2)C(C)(C)[C@H]1Oc1ccc(C#N)c(Cl)c1` (stereo partly drawn) [GT-05834, N-((1r,3r)-3-(3-chloro-4-cyanophenoxy)-2,2,4,4-tetramethylcyclobutyl)-6-(4-((5-(2-(2,4-dioxotetrahydropyrimidin-1(2H)-yl)-1,3-dioxoisoindolin-5-yl)-2,5-diazabicyclo[2.2.2]octan-2-yl)methyl)piperidin-1-yl)nicotinamide], in test [2], the inhibition at 0.5 µM was 30 to 40% and the inhibition at 2 µM lay within 20 to 30%.

As a reminder, the inhibition is the share of the control response that was lost under treatment.
